These compounds were tested against P2X7 receptor (Homo sapiens (Human), UniProt Q99572) (assay: P2X7 FLIPR assay: antagonism of BzATP response in 293 HEK cells stably expressing P2X7 receptor). Conditions: FLIPR fluorescence (Fluo-4), agonist BzATP, 293 HEK cells stably transfected with P2X7 receptor.
Assay type: cell-based
Procedure: Cells were plated to cell density of approximately 15,000 cells/well in 384-well assay plates (50 μl/well) with 1.5% low serum media (DMEM, 1.5% BCS, 1% L-glut (2 mM), 1% P/S).
Cells were plated to cell density of approximately 15,000 cells/well in 384-well assay plates (50 μl/well) with 1.5% low serum media (DMEM, 1.5% FBS, 1% L-glut (2 mM), 10 mM HEPES, 1% P/S). Cells were plated 24 hours prior to assay. Cells expressing human, rat or mouse P2X7 receptor were assayed in the following manner.
Fluo-4 NW dye mix (Molecular Probes, Inc., Eugene, Oreg., USA) was prepared in buffer (see manufacturer's instructions). Cell plates were removed from the 37° C. incubator, the media discarded and then 30 μL of dye was added to each well. Plates were placed in the 37° C., non-CO2 incubator for 30 minutes and then room temperature for 30 minutes.
Compound mixtures (A) were added to assay plates containing cells and placed at room temperature for 30 minutes, then BzATP (B) was added. Fluorescence was read using the Tetra FLIPR® (Molecular Devices, Inc., Sunnyvale, Calif., USA) and IC50 values were calculated by standard methods to determine antagonist activity.

P2X7 receptor, sequence (Q99572 whole entry): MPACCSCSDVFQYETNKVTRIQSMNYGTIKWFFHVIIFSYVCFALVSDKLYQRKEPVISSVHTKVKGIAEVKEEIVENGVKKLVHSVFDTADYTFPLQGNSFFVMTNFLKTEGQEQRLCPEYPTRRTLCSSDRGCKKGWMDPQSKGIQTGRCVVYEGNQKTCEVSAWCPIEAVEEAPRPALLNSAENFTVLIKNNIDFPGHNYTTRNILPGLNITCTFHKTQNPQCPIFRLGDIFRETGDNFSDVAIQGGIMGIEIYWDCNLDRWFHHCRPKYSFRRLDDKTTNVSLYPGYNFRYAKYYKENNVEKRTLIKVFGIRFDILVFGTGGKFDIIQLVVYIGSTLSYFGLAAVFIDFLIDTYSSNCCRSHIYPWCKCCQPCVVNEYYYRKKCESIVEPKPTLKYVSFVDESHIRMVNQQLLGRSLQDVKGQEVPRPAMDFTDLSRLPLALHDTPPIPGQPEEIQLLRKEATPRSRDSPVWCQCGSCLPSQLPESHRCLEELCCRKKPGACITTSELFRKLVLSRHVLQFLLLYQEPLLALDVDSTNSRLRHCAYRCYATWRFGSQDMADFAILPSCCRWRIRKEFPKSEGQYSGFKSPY

IC50 [nM]	SMILES
5.3	O=C(NCC(c1cnc(C2CC2)nc1)N1CCC(F)(F)CC1)c1c(Cl)cccc1Cl (single isomer, unassigned; (+)) [(+)2,6-dichloro-N-(2-(2-cyclopropylpyrimidin-5-yl)-2-(4,4-difluoropiperidin-1-yl)ethyl)benzamide]
56	Cn1cc(C(CNC(=O)c2c(Cl)cccc2Cl)N2CCC(F)(F)CC2)cn1 (single isomer, unassigned; (+)) [(+)2,6-dichloro-N-[2-(4,4-difluoro-1-piperidyl)-2-(1-methylp] [(+)2,6-dichloro-N-(2-(4,4-difluoropiperidin-1-yl)-2-(1-methyl-1H-pyrazol-4-yl)ethyl)benzamide]
15	CCc1ncc(C(CNC(=O)c2c(Cl)cccc2Cl)N2CCC(F)(F)CC2)cn1 (single isomer, unassigned; (+)) [(+)2,6-dichloro-N-[2-(4,4-difluoro-1-piperidyl)-2-(2-ethylpy] [(+2,6-dichloro-N-(2-(4,4-difluoropiperidin-1-yl)-2-(2-ethylpyrimidin-5-yl)ethyl)benzamide]
25	Cc1ncc(C(CNC(=O)c2c(Cl)ccc(F)c2Cl)N2CCC(F)(F)CC2)cn1 (single isomer, unassigned; (+)) [(+)2,6-dichloro-N-[2-(4,4-difluoro-1-piperidyl)-2-(2-methylp] [(+)2,6-dichloro-5-fluoro-N-(2-(4,4-difluoropiperidin-1-yl)-2-(2-methylpyrimidin-5-yl)ethyl)benzamide]
19	Cc1ncc(C(CNC(=O)c2c(Cl)cccc2Cl)N2CCC(F)(F)CC2)cn1 (single isomer, unassigned; (+)) [(+)2,6-dichloro-N-[2-(4,4-difluoro-1-piperidyl)-2-(2-methylp] [(+)2,6-dichloro-N-(2-(4,4-difluoropiperidin-1-yl)-2-(2-methylpyrimidin-5-yl)ethyl)benzamide]
7.5	O=C(NCC(c1cnc(C(F)(F)F)nc1)N1CCC(F)(F)CC1)c1c(Cl)cc(F)cc1Cl (single isomer, unassigned; (+)) [(+)2,6-dichloro-N-[2-(4,4-difluoro-1-piperidyl)-2-[2-(triflu] [(+)2,6-dichloro-4-fluoro-N-(2-(4,4-difluoropiperidin-1-yl)-2-(2-(trifluoromethyl)pyrimidin-5-yl)ethyl)benzamide]
7.1	O=C(NCC(c1cnc(C(F)(F)F)nc1)N1CCC(F)(F)CC1)c1c(Cl)ccc(F)c1Cl (single isomer, unassigned; (+)) [(+)2,6-dichloro-N-[2-(4,4-difluoro-1-piperidyl)-2-[2-(triflu] [(+)2,6-dichloro-5-fluoro-N-(2-(4,4-difluoropiperidin-1-yl)-2-(2-(trifluoromethyl)pyrimidin-5-yl)ethyl)benzamide]
4.7	O=C(NCC(c1cnc(C(F)(F)F)nc1)N1CCC(F)(F)CC1)c1c(Cl)cccc1Cl (single isomer, unassigned; (+)) [(+)2,6-dichloro-N-[2-(4,4-difluoro-1-piperidyl)-2-[2-(triflu] [(+)2,6-dichloro-N-(2-(4,4-difluoropiperidin-1-yl)-2-(2-(trifluoromethyl)pyrimidin-5-yl)ethyl)benzamide]
9.6	Cc1ncc(C(CNC(=O)c2c(Cl)cccc2Cl)N2CCC(F)CC2)cn1 (single isomer, unassigned; (+)) [(+)2,6-dichloro-N-[2-(4-fluoro-1-piperidyl)-2-(2-methylpyrim] [(+)2,6-dichloro-N-(2-(4-fluoropiperidin-1-yl)-2-(2-methylpyrimidin-5-yl)ethyl)benzamide]
6.1	O=C(NCC(c1cnc(C(F)(F)F)nc1)N1CCC(F)CC1)c1c(Cl)cccc1Cl (single isomer, unassigned; (+)) [(+)2,6-dichloro-N-[2-(4-fluoro-1-piperidyl)-2-[2-(trifluorom] [(+)2,6-dichloro-N-(2-(4-fluoropiperidin-1-yl)-2-(2-(trifluoromethyl)pyrimidin-5-yl)ethyl)benzamide]
8.7	O=C(NCC(c1ccc(C(F)F)nc1)N1CCC(F)(F)CC1)c1c(Cl)cccc1Cl (single isomer, unassigned; (+)) [(+)2,6-dichloro-N-[2-[6-(difluoromethyl)-3-pyridyl]-2-(4,4-d] [(+)2,6-dichloro-N-(2-(2-(difluoromethyl)pyridin-5-yl)-2-(4,4-difluoropiperidin-1-yl)ethyl)benzamide]
29	O=C(NCC(c1ccc(C(F)(F)F)nc1)N1CCOCC1)c1c(F)cccc1F (single isomer, unassigned; (+)) [(+)2,6-difluoro-N-[2-morpholino-2-[6-(trifluoromethyl)-3-pyr] [(+)2,6-Difluoro-N-[2-morpholino-2-[6-(trifluoromethyl)-3-pyridyl]ethyl]benzamide]
7	Cc1ncc(C(CNC(=O)c2cccc(OC(F)F)c2Cl)N2CCC(F)(F)CC2)cn1 (single isomer, unassigned; (+)) [(+)2-chloro-3-(difluoromethoxy)-N-[2-(4,4-difluoro-1-piperid] [(+)2-chloro-3-(difluoromethoxy)-N-(2-(4,4-difluoropiperidin-1-yl)-2-(2-methylpyrimidin-5-yl)ethyl)benzamide]
16	COc1cccc(C(=O)NCC(c2cnc(C(F)(F)F)nc2)N2CCOCC2)c1Cl (single isomer, unassigned; (+)) [(+)2-chloro-3-methoxy-N-[2-morpholino-2-[2-(trifluoromethyl)] [(+)2-chloro-3-methoxy-N-(2-morpholino-2-(2-(trifluoromethyl)pyrimidin-5-yl)ethyl)benzamide]
71	CS(=O)(=O)c1ccc(Cl)c(C(=O)NCC(c2ccc(C(F)(F)F)nc2)N2CCOCC2)c1 (single isomer, unassigned; (+)) [(+)2-chloro-5-methylsulfonyl-N-[2-morpholino-2-[6-(trifluoro] [(+)2-chloro-5-(methylsulfonyl)-N-(2-morpholino-2-(6-(trifluoromethyl)pyridin-3-yl)ethyl)benzamide]
32	O=C(NCC(c1ccc(C(F)(F)F)nc1)N1CCOCC1)c1c(F)cccc1Cl (single isomer, unassigned; (+)) [(+)2-chloro-6-fluoro-N-[2-morpholino-2-[6-(trifluoromethyl)-] [(+)2-chloro-6-fluoro-N-(2-morpholino-2-(6-(trifluoromethyl)pyridin-3-yl)ethyl)benzamide]
9.9	O=C(NCC(c1cnc(C2CC2)nc1)N1CCC(F)(F)CC1)c1c(F)cccc1Cl (single isomer, unassigned; (+)) [(+)2-chloro-N-[2-(2-cyclopropylpyrimidin-5-yl)-2-(4,4-difluo] [(+)2-chloro-6-fluoro-N-(2-(2-cyclopropylpyrimidin-5-yl)-2-(4,4-difluoropiperidin-1-yl)ethyl)benzamide]
3	O=C(NCC(c1cnc(C2CC2)nc1)N1CCC(F)(F)CC1)c1ccccc1Cl (single isomer, unassigned; (+)) [(+)2-chloro-N-[2-(2-cyclopropylpyrimidin-5-yl)-2-(4,4-difluo] [(+)2-chloro-N-(2-(2-cyclopropylpyrimidin-5-yl)-2-(4,4-difluoropiperidin-1-yl)ethyl)benzamide]
59	Cc1ncc(C(CNC(=O)c2ccccc2Cl)N2CCCCC2)cn1 (single isomer, unassigned; (+)) [(+)2-chloro-N-[2-(2-methylpyrimidin-5-yl)-2-(1-piperidyl)eth] [(+)2-chloro-N-(2-(2-methylpyrimidin-5-yl)-2-(piperidin-1-yl)ethyl)benzamide]
630	Cc1ncc(C(CNC(=O)c2ccccc2Cl)N2CCOCC2)cn1 (single isomer, unassigned; (+)) [(+)2-chloro-N-[2-(2-methylpyrimidin-5-yl)-2-morpholino-ethyl] [(+)2-chloro-N-(2-(2-methylpyrimidin-5-yl)-2-morpholinoethyl)benzamide]
100	Cc1ncc(C(CNC(=O)c2cccc(F)c2Cl)N2CCCC(F)(F)C2)cn1 (single isomer, unassigned; (+)) [(+)2-chloro-N-[2-(3,3-difluoro-1-piperidyl)-2-(2-methylpyrim] [(+)2-chloro-3-fluoro-N-(2-(3,3-difluoropiperidin-1-yl)-2-(2-methylpyrimidin-5-yl)ethyl)benzamide]
53	Cc1ncc(C(CNC(=O)c2c(F)cccc2Cl)N2CCCC(F)(F)C2)cn1 (single isomer, unassigned; (+)) [(+)2-chloro-N-[2-(3,3-difluoro-1-piperidyl)-2-(2-methylpyrim] [(+)2-chloro-6-fluoro-N-(2-(3,3-difluoropiperidin-1-yl)-2-(2-methylpyrimidin-5-yl)ethyl)benzamide]
85	Cc1ncc(C(CNC(=O)c2ccccc2Cl)N2CCCC(F)(F)C2)cn1 (single isomer, unassigned; (+)) [(+)2-chloro-N-[2-(3,3-difluoro-1-piperidyl)-2-(2-methylpyrim] [(+)2-chloro-N-(2-(3,3-difluoropiperidin-1-yl)-2-(2-methylpyrimidin-5-A)ethyl)benzamide]

SMILES	IC50 [nM]
O=C(NCC(c1ccc(C(F)(F)F)nc1)N1CCC(F)(F)CC1)c1c(F)cccc1Cl (single isomer, unassigned; (+)) [(+)2-chloro-6-fluoro-N-(2-(4,4-difluoropiperidin-1-yl)-2-(2-(trifluoromethyl)pyridin-5-yl)ethyl)benzamide]	0.62
